Measured values published in patent US20050043289A1, “Crystalline hydrochloride of 7-(((5-amino-1,2,4-thiadiazol-3-yl) (fluoromethoxyimino)acetyl)amino)-3-((imino-1-piperazinylmethyl)methylhydrazono)-methyl-3-cephem-4-carboxylic acid” (priority 2002, published 2005).
In brackets after ≈: the same amount, converted by molar mass. Where a name gives a salt, the structure may show the parent alone. Read-outs that look alike come from different tables or passages of the source.

Columns and labels:
[1] = stability in aqueous solution; format: physicochemical; conditions: pH values of 3-5, 5° C.
[2] = storage stability in solid form; format: physicochemical; conditions: e.g. at 5° C.
solubility in water = format: physicochemical
Excerpt: Thus, a compound of the present invention is appropriate for pharmaceutical administration.

Enterobacter cloacae = experiment: MIC, Agar Dilution Test and/or Micro Dilution Test (NCCLS); format: cell-based; conditions: against Enterobacter cloacae
[3] = test system: Staphylococcus aureus (MSSA); experiment: as above; format: cell-based; conditions: against Staphylococcus aureus (MSSA)
Excerpt: (§1) In particular, the compounds of the present invention show antimicrobial, e.g. antibacterial activity against aerobic and anaerobic growing bacteria, e.g. gram negative and gram positive bacteria such as Enterobacter, e.g. Enterobacter cloacae; Enterococcus, e.g. Enterococcus faecalis; Moraxella, e.g. Moraxella catarrhalis; Haemophilus, e.g. Haemophilus influenza; Klebsiella, e.g. Klebsiella edwardsii, Klebsiella pneumoniae; Streptococcus, e.g. Streptococcus pyogenes; Staphylococcus, e.g. Staphylococcus aureus MSSA (methicillin sensitive strains); Staphylococcus aureus MRSA (methicillin resistant strains); Escherichia coli; Proteus, e.g. Proteus mirabilis; Salmonella, e.g. Salmonella typhimurium; Serratia, e.g. Serratia marcescens; Pneumococci, e.g. Streptococcus pneumoniae (penicillin resistant and multi-drug resistant strains); in vitro in the Agar Dilution Test and/or Micro Dilution Test for bacteria according to National Committee for Clinical Laboratory Standards (NCCLS) 1993, • Document M7-A3, Vol. 13, No.25: “Methods for dilution Antimicrobial Susceptibility Tests for Bacteria that Grow Aerobically”—Third Edition, Approved Standard”; and • Document M11 -A3 for anaerobic bacteria in a concentration from about 0.001 to about […] (MIC), e.g. using strains including Staphylococcus aureus (ATCC 29213 and ATCC 9144); Enterococcus faecalis (ATCC 29212); Haemophilus influenza (NTCC 49247 and NCTC 11931); Escherichia coli (ATCC 25922 and ATCC 35218); Klebsiella pneumoniae (NCTC 11228); Klebsiella edwardsii (NCTC 10896); and in vivo in the septicaemia mouse model, in accordance to the method description Nr. […] E.g., mice are infected with an ED 95% of Staphylococcus aureus (ATCC 4995), Streptococcus pyogenes (ATCC 29218), Escherichia coli (Δ 12 NFI culture collection) and are treated 1.5 and 24 hours after infection. The ED 50% values ranging form ca. 0.2 to 50 mg/kg body weight are calculated by Probit analysis of the administered dosages of compounds. Activity is determined by numbers of surviving animals per group of 8 mice per dosage unit day 5 after infection. The compounds of the invention show an surprising overall activity spectrum.

[4] = test system: multi-drug resistant Pneumococcus; experiment: as above; format: cell-based; conditions: Streptococcus pneumoniae; against multi-drug resistant Pneumococcus
Excerpt: as §1

Enterococcus faecalis = experiment: as above; format: cell-based; conditions: against Enterococcus faecalis
Excerpt: as §1

[5] = test system: methicillin resistant Staphylococcus aureus; experiment: as above; format: cell-based; conditions: against methicillin resistant Staphylococcus aureus
Excerpt: as §1

[6] = water uptake in presence of environmental moisture (stress test) / water content constancy; format: physicochemical; conditions: Karl Fischer, over 6 weeks
Excerpt: A monohydrochloride, produced according to the present invention, may be obtained in the form of a trihydrate, which, after appropriate drying, has a water content of ca. 7% to 10%, such as 7.3% to 9.6% (theory: 8.2%). The monohydrochloride in the form of a trihydrate may be dried, e.g. over P2O5, to a water content of 1.5%. […] The chloride content of the monohydrochloride in the form of a trihydrate is between 5% and 6% (theory: 5.5%).
Water content (Karl Fischer): 9.6%. […] HCl (titration): 5.5%. Isopropanol-content: 0.05%. Content of a compound of formula I (based on the free base): […]. pH and [β]^20D of a 1% solution in water: pH: 4.3; [β]^20589=−167±1°

| stability in aqueous solution [1] | storage time with practically no or only slight decomposition [2] | solubility (solubility in water; in water at 5°C.) | solubility (solubility in water; in water at room temperature, read-out: solubility) | MIC (Enterobacter cloacae) | MIC [3] | MIC [4] | MIC (Enterococcus faecalis) | MIC [5] | SMILES | water content constancy [6] |
| --- | --- | --- | --- | --- | --- | --- | --- | --- | --- | --- |
| remains stable for at least one week | at least 4 weeks | ≥ 2 % (w/v) | ~100 mg/mL (≈ 176 mM) |  |  |  |  |  | CN(/N=C/C1=C(C(=O)O)N2C(=O)[C@@H](NC(=O)/C(=N\OCF)c3nsc(N)n3)C2SC1)C(=N)N1CCNCC1 (stereo partly shown) |  |
|  |  |  |  | 0.025 to 12.8 µg/mL | 0.2 to 0.8 µg/mL | 0.4 to 0.8 µg/mL | 0.1 to 0.8 µg/mL | 0.8 to 12.6 µg/mL | CN(/N=C/C1=C(C(=O)O)N2C(=O)[C@@H](NC(=O)/C(=N\OCF)c3nsc(N)n3)C2SC1)C(=N)N1CCNCC1 (stereo partly shown) [Example 2, 7-{[(5-amino-1,2,4-thiadiazol-3-yl)-(Z)-(fluoromethoxyimino)acetyl]amino}-3-[(imino-1-piperazinylmethyl)methylhydrazono]-methyl-3-cephem-4-carboxylic acid in the form of a monohydrochloride and in the form of a trihydrate] | Water content constant (±6%) over 6 weeks |
